SMILES strings stand for the structures.

What is called melting point is the temperature, or range, at which the solid turns liquid. As to `CC(C)(C)c1ccc(Oc2nc(Nc3cccc(C(=O)O)c3)nc(Oc3ccccc3)n2)cc1`, the melting point was 245 to 247 °C.
Regarding `CCNC(=O)n1nc(Oc2ncc(Cl)cc2Cl)cc1C`, the melting point lay within 74 to 76 °C.
The same measure for `CCCOc1ccccc1-c1nc2nc(NCCOC)ncc2c(=O)[nH]1`: 193 to 194 °C; for `COc1cc(CN[C@@H](CC(C)C)C(=O)N2CCN(C(c3ccc(F)cc3)c3ccc(F)cc3)CC2)cc(OC)c1OC`: 58 to 62 °C.
For `CNCCCn1cc2c(C3C(=O)Nc4ccc(Br)cc43)ncnc2n1` (stereo not drawn), the melting point is 240 to 243 °C.
For the compound `O=C(NCC1Cc2c(Cl)cc3c(c2O1)CCC3)OCc1ccccc1` (stereo not drawn), the melting point is 127 to 130 °C.
The compound `CC12CCC3c4ccc(C(=O)O)cc4CCC3C1CCC2C(=O)Cc1ccccc1` (stereo not drawn) gave a melting point of 146 to 150 °C.
Turning to `CCCc1cccc2c(/C=C(\C)C(=O)O)cc(OC)c(O)c12`, the melting point was in the range of 67 to 68 °C.
For `CCN(CC)CC(=O)Nc1ccc(C2=NN(C(C)=O)C(C)Cc3cc4c(cc32)OCO4)cc1` (stereo not drawn), the melting point lay in the range of 175 to 176 °C.
Compound `CON(C)C(=O)c1ccoc1` came in with a melting point of 39 to 42 °C.
For the compound `COc1ccc(-c2cc(CN3CCNCC3)c(=O)n(CC3CC3)n2)cc1F`, the melting point is 112 to 118 °C.
Regarding `CC#CCOc1ccc(S(=O)(=O)N(C)C(CCCSc2ccc(Cl)cc2)C(=O)NO)cc1` (stereo not drawn), the melting point lay in the range of 144 to 146 °C.
`FC(F)(F)COc1ccc(Cc2ccncc2)cc1`: the melting point fell in the range of 51 to 53 °C.
For `Cc1cc(I)ccc1-c1cccc(C(N)=O)c1`, the melting point lay in the range of 138 to 141 °C.
Compound `CCc1ccc2oc(C(=O)Nc3ccc(-c4ccc(S(=O)(=O)NC(C(=O)OC)C(C)C)cc4)cc3)c(C)c2c1OCc1ccccc1` (stereo not drawn) registered a melting point of 191 to 193 °C.
Consider `CCCc1nc(NC(C)=O)nc(N2CCOCC2)n1`, for which the melting point fell in the range of 141 to 142 °C.
`CCSc1cc(C)nc(SCC)c1NC(=O)CCCCCCCSc1nc2ccccc2[nH]1` returned a melting point of 166 to 168 °C.
With `CC(=O)NC(C)c1ccc(CN2CCN(c3ncccn3)CC2)cc1` (stereo not drawn), the melting point was in the range of 124 to 126 °C.
For `CCS(=O)(=O)N(c1ccc(F)cc1Br)S(=O)(=O)CC`, the melting point lay in the range of 114 to 116 °C.
With `Clc1ccc(Oc2cncc3sc(-c4ccco4)cc23)cc1`, the melting point was in the range of 75 to 77 °C.
Compound `Cc1cccc(C2COc3cc(O)c(O)cc3C2)c1` (stereo not drawn) showed a melting point of 146 to 148 °C.
The figure for `CC(=O)N(C)c1cccc2c1nc(-c1c(F)cccc1F)n2Cc1c(F)cccc1F` is 155 to 156 °C; for `O=C(O)CCc1oc(-n2ccnc2CO)nc1-c1ccc(Cl)cc1` it is 171 to 173 °C.
The same measure for `CC(C)(C)NC(=O)c1ccc(Cl)cc1`: 136 to 137 °C.
`COc1ccc(-c2csc(NC(=O)COc3ccc(Cl)cc3Cl)n2)cc1` came in with a melting point of 135 to 139 °C.
`O=C(CCCCC1CCSS1)N1CCSC1` (stereo not drawn) showed a melting point of 40 to 41 °C.
The figure for `O=C(NCCCCc1ccccc1)Oc1ccc2oc3ccccc3c2c1` is 113 to 114 °C; for `CC(C)CN1C2=NCCN2C(=O)C(N=O)=C1N` it is 203 to 205 °C; for `CCc1nc2cnc3cc(Br)ccc3c2n1CC1CCN(C(=O)OC(C)(C)C)CC1` it is 208 to 209 °C.
As to `CC1=C(C(=O)OC(C)C)C(c2cccc([N+](=O)[O-])c2)c2c(nc(N3CCOCC3)nc2N2CCOCC2)N1` (stereo not drawn), the melting point turned out to be 229 °C.
The same measure for `CCN1C(=O)C2Cc3c([nH]c4ccccc34)C(c3ccc(N(C)C)cc3)N2C1=O` (stereo not drawn): 262 to 265 °C; for `CN[C@@H](C)[C@@H]1CCN(c2c(F)cc3c(=O)[nH]c(=O)n(C4CC4)c3c2OC)C1`: 162 to 164 °C; for `CCc1ccc2c(c1)C(O)(c1ccccn1)CC(C)(C)CO2` (stereo not drawn): 84 °C.
The compound `CCCCCCCCCCCCCCCc1cc(OCC(COC(=O)NCCCCCn2cnnn2)Oc2cc(C)on2)no1` (racemic) yielded a melting point of 82 to 84 °C.
Take `CC(C)COC1OC(CO)C(O)C(O)C1(O)N(C(=O)N(CCCl)N=O)C(C)C` (stereo not drawn): the melting point is 83 to 85 °C.
In turn, `CC(=O)C(=Cc1ccc(Cl)c([N+](=O)[O-])c1)C(C)=O` gave a melting point of 110 to 111 °C.
The figure for `COC1=C(C#N)C(=O)N(C)C1=O` is 123 to 125 °C.
The compound `C[C@@H](C(=O)c1ccccc1)[C@H](NC(=O)C(F)(F)F)C(=O)OC(C)(C)C` gave a melting point of 127 to 128 °C.
The same measure for `CC(=O)O[C@@H](C)C(=O)Nc1c(C(=O)c2ccccc2)[nH]c2cc(Cl)ccc12`: 80 to 85 °C.
In turn, `CCOc1ccc(C2=NC[C@@H](OC(=O)Nc3ccccc3)[C@H](c3ccccc3)O2)cc1` (racemic) had a melting point of 80 °C.
In turn, `CC(=O)C1(c2ccccc2)CCN(C(=O)OC(C)(C)C)CC1` gave a melting point of 91 to 92 °C.
The same measure for `CNC1C(O)CC2C3CCc4cc(O)cc(C)c4C3CCC21C` (stereo not drawn): 215 to 231 °C; for `OCC1=CC=C(COc2cccc(O)c2)SS1`: 116 °C.
Compound `COc1ccc(C(=O)Nc2ccc(C(=O)N3CCCC3)cc2)cc1C12CC3CC(CC(C3)C1)C2` showed a melting point of 239 to 242 °C.
The figure for `CCc1c(C(=O)c2cccc(Cl)c2Cl)c2cccc(Br)c2n1CCCN(C)S(C)(=O)=O` is 111 °C; for `Cc1ccnn(-c2cccc(Cl)c2)c1=O` it is 244 to 245 °C.
The compound `COC(=O)C1C(N2C(=O)c3ccccc3C2=O)C(=O)N1Cc1ccc(OC)cc1` (stereo not drawn) returned a melting point of 141 to 142 °C.
The compound `Cc1cn(C2OC(COC(=O)c3ccccc3)C(OC(=O)c3ccccc3)C2F)c(=O)[nH]c1=O` (stereo not drawn) returned a melting point of 120 to 122 °C.
`Nc1ccc(Cc2ccccc2)cc1[N+](=O)[O-]` returned a melting point of 80 to 83 °C.
The same measure for `CC(O)=C(C(=O)OCc1ccccc1)N1C(=O)[C@@H](N2C(=O)c3ccccc3C2=O)[C@H]1COS(C)(=O)=O`: 61 to 65 °C; for `C[Si](C)(C)c1ccc(-c2nccc3ccccc23)cc1`: 93.5 °C.
The figure for `COc1ccc(Cc2cnc(N)nc2N)cc1OCCCSc1ccc(NC(C)=O)cc1` is 175 to 177 °C; for `CNC(=O)c1ccc(N(CC(=O)OC(C)(C)C)C(=O)OC(C)(C)C)cc1` it is 164 to 166 °C; for `CN1CCN(c2ccc(Nc3ncc4c(n3)SC(=Cc3ccc(OCc5ccccc5)cc3)C(=O)N4)cc2)CC1` it is 238 to 240 °C.
The figure for `COc1cc(NC(=O)OC(C)(C)C)c(Cl)c(OC)c1` is 94.5 to 95.5 °C; for `Nc1cc(N2CCCC2)c(F)cc1[N+](=O)[O-]` it is 115 to 116 °C; for `O=c1c2ccccc2c(-c2ccccc2)c2n1CCCC2O` (stereo not drawn) it is 220 to 222 °C.
`CO[C@H](C(=O)O)c1cccc([N+](=O)[O-])c1`: the melting point was determined as 112 °C.
`CC(C)(C)OC(=O)NCCc1c[nH]c2ccc(C#N)cc12` displayed a melting point of 129 to 132 °C.
The figure for `CC1CC(=Cc2ccccc2Cl)C(=O)O1` (stereo not drawn) is 48 °C; for `O=C(O)CSC1c2ccccc2COc2ccc(OCc3ccc4ccccc4n3)cc21` (stereo not drawn) it is 174 to 179 °C; for `CC(=O)N1CCCc2ccc(C(C)NC(=O)C=Cc3ccccc3)cc21` (stereo not drawn) it is 65 to 68 °C.
In turn, `O=C(CS)N1CCSC1COc1ccccc1O` (stereo not drawn) showed a melting point of 92 to 93 °C.
The compound `OC1(c2ccc(Cl)cc2)CCN(CCCc2noc3cc(F)ccc23)CC1` yielded a melting point of 142 to 145 °C.
On to `CCCCCCC(C)Oc1ccc(-c2ccc(O)cc2)cc1F` (stereo not drawn), for which the melting point was in the range of 65.2 to 66.7 °C.
As for `NS(=O)(=O)NC(=O)CCCCC1CCSS1` (stereo not drawn), the melting point was 141 to 142 °C.
The figure for `N#CCC(=N)c1cccc(F)c1` is 67 to 68 °C; for `CN1C(=O)c2ccc(CBr)cc2S1(=O)=O` it is 153 to 154 °C.
The compound `COc1ccc(N2CCN(c3c(C)c(C)c4c(c3C)CC(C)(CN3CCC(O)CC3)O4)CC2)cc1` (stereo not drawn) gave a melting point of 139 to 143 °C.
The same measure for `O=c1c2c(Cc3ccccc3)n[nH]c2c2ccccc2n1-c1ccccc1`: 255 to 257 °C.
On to `CCOC(=O)C(Cc1c[nH]c2c(F)cccc12)(NC=O)C(=O)OCC`, for which the melting point was 164 to 166 °C.
`COC(=O)c1cccc(C(=O)c2[nH]c3cc(Cl)ccc3c2NC(C)=O)c1` showed a melting point of 190 to 193 °C.
For `O=C(Nc1cc2nc(-c3ccc(C(=O)C4CCCCCC4)cc3)[nH]c2cn1)C1CCCCCC1`, the melting point was found to be 194 °C.
The figure for `CCCc1nnc(Cc2ccc(N)cc2)o1` is 60 to 61 °C.
`CCOCc1nc2c(N)nc3cc(Br)cnc3c2n1CC(C)(C)F` displayed a melting point of 221 to 222 °C.
The figure for `CC1=C(C#N)C(c2cccc([N+](=O)[O-])c2)C(c2nc(CCl)no2)=C(C)N1` (stereo not drawn) is 204 to 206 °C; for `O=C1Nc2cc(F)ccc2N2CCN(Cc3ccncc3)CC12` (stereo not drawn) it is 269 to 272 °C.
As for `CC(C)c1ccc2c(c1)c(S(=O)(=O)c1ccccc1C(C)C)c(CC(C)(C)C(=O)O)n2Cc1ccc(Cl)cc1`, the melting point was in the range of 181 to 182 °C.
`COC(=O)NN=Cc1ccc([N+](=O)[O-])cc1` came in with a melting point of 212 to 213 °C.
The figure for `CCCc1nc(-c2ncn3c2COC(=O)c2c(Cl)cccc2-3)no1` is 130 to 132 °C; for `Nc1nc2ccc(Cl)nc2c(=O)[nH]1` it is above 330 °C.
The same measure for `CC(C)NC(=O)c1ccc(F)c2c1CC(N(CCCc1c[nH]c3ccc(F)cc13)C1CCC1)CO2` (stereo not drawn): 127 °C.
As to `CC(=O)OC1CSC(Oc2ccc(Cl)c(-c3cccnc3)c2)C(OC(C)=O)C1OC(C)=O` (stereo not drawn), the melting point was found to be 133 °C.
In turn, `Clc1cc(COCc2cc(Cl)nc(Cl)c2)cc(Cl)n1` registered a melting point of 69.1 °C.
The compound `CC1(CO)C(O)CCC2(C)C1CCC1CC3CC12CCC3(O)CO` (stereo not drawn) gave a melting point of 290 to 300 °C.
The same measure for `COC(=O)c1ccc(NC(=O)c2cc(C(C)C)c(C(C)C)s2)cc1OC`: 172 to 173 °C; for `CC(C)C(c1ccc2[nH]c(=O)cnc2c1)n1ccnc1` (stereo not drawn): 194 °C; for `CC(=O)Nc1ccc(C(=N)Nc2cc(NC(=O)/C=C/c3ccccc3C(F)(F)F)c(F)cc2F)cc1`: 180 to 185 °C.

The values above are taken from a melting point compilation (Tetko et al.; mined from patent text by program, amines drawn as free bases though some values may be those of a salt).
